Laboratory results reported in ChEMBL document CHEMBL4507261, “Data for DCP probe A-192621” (2021).

Experiments:
[1] = system: Receptor-type tyrosine-protein kinase FLT3 (Homo sapiens), P36888 [R834Q]; conditions: Compound concentration 1000.0 nM
[2] = target: Type-1 angiotensin II receptor (Homo sapiens) (UniProt P30556); experiment: AT1 (h) Eurofins-Cerep binding assay; set-up: ligand concentration 0.05 nM; conditions: filed as antagonist, Compound concentration 10.0 uM
[3] = target: Myosin light chain kinase, smooth muscle (Homo sapiens) (UniProt Q15746); conditions: Compound concentration 1000.0 nM
[4] = target: Tyrosine-protein kinase TXK (Homo sapiens) (UniProt P42681); conditions: Compound concentration 1000.0 nM
[5] = target: Tumor necrosis factor (Homo sapiens) (UniProt P01375); experiment: TNF-alpha (h) Eurofins-Cerep binding assay; conditions: filed as agonist, Compound concentration 10.0 uM
Sequence of Tumor necrosis factor (Homo sapiens) (P01375 whole entry): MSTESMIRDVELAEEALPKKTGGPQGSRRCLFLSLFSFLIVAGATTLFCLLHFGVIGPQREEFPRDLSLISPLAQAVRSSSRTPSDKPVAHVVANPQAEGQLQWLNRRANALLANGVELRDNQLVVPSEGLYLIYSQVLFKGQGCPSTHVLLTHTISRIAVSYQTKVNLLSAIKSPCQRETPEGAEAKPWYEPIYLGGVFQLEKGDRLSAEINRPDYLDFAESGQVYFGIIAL

[6] = target: Calcium/calmodulin-dependent protein kinase type IV (Homo sapiens) (UniProt Q16566); conditions: Compound concentration 1000.0 nM
Sequence of Calcium/calmodulin-dependent protein kinase type IV (Homo sapiens) (Q16566 whole entry): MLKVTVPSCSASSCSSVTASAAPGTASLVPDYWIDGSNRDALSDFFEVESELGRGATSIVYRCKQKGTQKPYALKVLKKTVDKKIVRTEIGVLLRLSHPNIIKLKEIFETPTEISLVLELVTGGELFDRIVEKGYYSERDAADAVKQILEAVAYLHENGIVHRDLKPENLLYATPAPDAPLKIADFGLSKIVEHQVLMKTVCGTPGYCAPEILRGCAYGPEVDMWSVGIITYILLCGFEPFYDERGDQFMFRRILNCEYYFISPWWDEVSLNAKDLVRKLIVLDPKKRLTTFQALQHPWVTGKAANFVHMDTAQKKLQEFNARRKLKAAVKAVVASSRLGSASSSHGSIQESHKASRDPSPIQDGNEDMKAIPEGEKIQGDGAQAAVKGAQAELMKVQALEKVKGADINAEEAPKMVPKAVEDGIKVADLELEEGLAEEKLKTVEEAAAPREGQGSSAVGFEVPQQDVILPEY

[7] = target: Serine/threonine-protein kinase tousled-like 1 (Homo sapiens) (UniProt Q9UKI8); conditions: Compound concentration 1000.0 nM
[8] = target: Dual specificity tyrosine-phosphorylation-regulated kinase 2 (Homo sapiens) (UniProt Q92630); conditions: Compound concentration 1000.0 nM
[9] = target: Serine/threonine-protein kinase BRSK1 (Homo sapiens) (UniProt Q8TDC3); conditions: Compound concentration 1000.0 nM
[10] = target: Mitogen-activated protein kinase kinase kinase 2 (Homo sapiens) (UniProt Q9Y2U5); conditions: Compound concentration 1000.0 nM
[11] = target: Ribosomal protein S6 kinase alpha-5 (Homo sapiens) (UniProt O75582); conditions: Compound concentration 1000.0 nM
[12] = target: Testis-specific serine/threonine-protein kinase 3 (Homo sapiens) (UniProt Q96PN8); conditions: Compound concentration 1000.0 nM
[13] = target: Cyclin-dependent kinase 18 (Homo sapiens) (UniProt Q07002); conditions: Compound concentration 1000.0 nM
[14] = target: Interleukin-1 receptor-associated kinase 1 (Homo sapiens) (UniProt P51617); conditions: Compound concentration 1000.0 nM
[15] = system: Epidermal growth factor receptor (Homo sapiens), P00533 [UNDEFINED MUTATION]; conditions: Compound concentration 1000.0 nM
[16] = target: 5-hydroxytryptamine receptor 1B (Homo sapiens) (UniProt P28222); experiment: 5-HT1B(h) Eurofins-Cerep binding assay; set-up: ligand concentration 1 nM; conditions: filed as antagonist, Compound concentration 10.0 uM
[17] = target: Glycogen synthase kinase-3 alpha (Homo sapiens) (UniProt P49840); conditions: Compound concentration 1000.0 nM
Sequence of Glycogen synthase kinase-3 alpha (Homo sapiens) (P49840 2-483 limits assumed): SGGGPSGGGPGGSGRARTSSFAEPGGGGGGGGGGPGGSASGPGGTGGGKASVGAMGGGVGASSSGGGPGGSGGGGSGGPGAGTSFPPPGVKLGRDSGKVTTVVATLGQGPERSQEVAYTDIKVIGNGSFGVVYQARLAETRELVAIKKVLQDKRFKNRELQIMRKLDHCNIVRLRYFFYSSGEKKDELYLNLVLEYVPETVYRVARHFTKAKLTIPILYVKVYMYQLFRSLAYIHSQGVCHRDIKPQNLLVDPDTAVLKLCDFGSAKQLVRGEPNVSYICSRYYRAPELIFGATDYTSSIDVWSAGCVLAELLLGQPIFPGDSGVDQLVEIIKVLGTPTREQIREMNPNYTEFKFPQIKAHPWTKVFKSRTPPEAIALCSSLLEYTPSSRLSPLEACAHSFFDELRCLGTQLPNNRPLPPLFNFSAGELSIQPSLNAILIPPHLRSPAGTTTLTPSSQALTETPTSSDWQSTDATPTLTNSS

[18] = target: Mitogen-activated protein kinase kinase kinase 1 (Homo sapiens) (UniProt Q13233); conditions: Compound concentration 1000.0 nM
[19] = target: Myotonin-protein kinase (Homo sapiens) (UniProt Q09013); conditions: Compound concentration 1000.0 nM
[20] = target: Tyrosine-protein kinase ABL1 (Homo sapiens) (UniProt P00519); conditions: Compound concentration 1000.0 nM
[21] = target: Dual specificity protein kinase CLK2 (Homo sapiens) (UniProt P49760); conditions: Compound concentration 1000.0 nM
[22] = target: Muscarinic acetylcholine receptor M1 (Homo sapiens) (UniProt P11229); experiment: M1 (h) Eurofins-Cerep binding assay; set-up: ligand concentration 2 nM; conditions: filed as antagonist, Compound concentration 10.0 uM
[23] = target: Calcium/calmodulin-dependent protein kinase type 1D (Homo sapiens) (UniProt Q8IU85); conditions: Compound concentration 1000.0 nM
Sequence of Calcium/calmodulin-dependent protein kinase type 1D (Homo sapiens) (Q8IU85 whole entry, looked up): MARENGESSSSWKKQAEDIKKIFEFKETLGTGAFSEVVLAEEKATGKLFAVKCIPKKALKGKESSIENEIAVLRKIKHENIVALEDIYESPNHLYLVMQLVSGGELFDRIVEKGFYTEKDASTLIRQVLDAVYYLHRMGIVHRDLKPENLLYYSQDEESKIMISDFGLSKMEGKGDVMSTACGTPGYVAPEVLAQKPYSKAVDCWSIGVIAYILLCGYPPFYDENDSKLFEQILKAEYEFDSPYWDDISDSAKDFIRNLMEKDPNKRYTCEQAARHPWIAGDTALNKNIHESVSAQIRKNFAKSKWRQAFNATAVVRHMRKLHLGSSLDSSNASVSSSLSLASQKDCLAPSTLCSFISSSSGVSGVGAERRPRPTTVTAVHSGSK

[24] = target: Proto-oncogene tyrosine-protein kinase ROS (Homo sapiens) (UniProt P08922); conditions: Compound concentration 1000.0 nM
[25] = target: Cyclin-dependent kinase 16 (Homo sapiens) (UniProt Q00536); conditions: Compound concentration 1000.0 nM
Sequence of Cyclin-dependent kinase 16 (Homo sapiens) (Q00536 whole entry): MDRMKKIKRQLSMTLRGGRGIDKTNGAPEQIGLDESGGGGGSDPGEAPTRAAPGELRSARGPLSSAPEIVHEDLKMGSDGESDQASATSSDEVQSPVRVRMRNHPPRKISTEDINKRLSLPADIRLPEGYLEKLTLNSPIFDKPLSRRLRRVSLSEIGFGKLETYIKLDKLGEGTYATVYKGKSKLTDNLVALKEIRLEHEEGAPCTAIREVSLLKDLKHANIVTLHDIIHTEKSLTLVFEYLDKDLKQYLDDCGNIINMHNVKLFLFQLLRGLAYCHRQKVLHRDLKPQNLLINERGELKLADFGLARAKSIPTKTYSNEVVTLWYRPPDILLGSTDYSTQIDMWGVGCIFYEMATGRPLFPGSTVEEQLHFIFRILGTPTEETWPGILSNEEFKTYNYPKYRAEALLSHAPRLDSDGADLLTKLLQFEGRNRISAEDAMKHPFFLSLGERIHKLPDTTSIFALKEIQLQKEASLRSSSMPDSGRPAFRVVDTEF

[26] = target: Ribosomal protein S6 kinase alpha-3 (Homo sapiens) (UniProt P51812); conditions: Compound concentration 1000.0 nM
[27] = target: Serine/threonine-protein kinase 16 (Homo sapiens) (UniProt O75716); conditions: Compound concentration 1000.0 nM
[28] = target: Ephrin type-A receptor 8 (Homo sapiens) (UniProt P29322); conditions: Compound concentration 1000.0 nM
[29] = target: LIM domain kinase 1 (Homo sapiens) (UniProt P53667); conditions: Compound concentration 1000.0 nM
Sequence of LIM domain kinase 1 (Homo sapiens) (P53667 whole entry, looked up, the tested form may be a part): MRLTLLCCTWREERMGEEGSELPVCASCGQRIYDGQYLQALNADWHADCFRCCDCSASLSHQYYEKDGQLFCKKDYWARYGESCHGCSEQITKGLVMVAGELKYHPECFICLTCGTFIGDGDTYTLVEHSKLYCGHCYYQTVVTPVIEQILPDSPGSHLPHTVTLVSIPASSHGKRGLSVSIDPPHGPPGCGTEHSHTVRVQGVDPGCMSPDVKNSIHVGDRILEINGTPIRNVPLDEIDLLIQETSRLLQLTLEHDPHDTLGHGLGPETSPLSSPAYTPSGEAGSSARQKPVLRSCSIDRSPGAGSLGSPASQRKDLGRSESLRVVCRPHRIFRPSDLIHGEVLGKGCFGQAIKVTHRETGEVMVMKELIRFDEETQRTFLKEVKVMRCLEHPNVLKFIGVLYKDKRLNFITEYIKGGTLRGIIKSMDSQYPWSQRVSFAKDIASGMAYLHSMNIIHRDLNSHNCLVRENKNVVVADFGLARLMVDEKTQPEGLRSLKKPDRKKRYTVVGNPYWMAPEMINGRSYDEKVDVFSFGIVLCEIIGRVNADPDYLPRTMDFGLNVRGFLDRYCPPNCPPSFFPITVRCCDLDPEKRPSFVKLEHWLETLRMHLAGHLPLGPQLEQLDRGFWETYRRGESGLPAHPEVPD

[30] = target: Phosphatidylinositol 5-phosphate 4-kinase type-2 beta (Homo sapiens) (UniProt P78356); conditions: Compound concentration 1000.0 nM
[31] = target: Kappa-type opioid receptor (Homo sapiens) (UniProt P41145); experiment: kappa (h) (KOP) Eurofins-Cerep binding assay; set-up: ligand concentration 0.5 nM; conditions: filed as agonist, Compound concentration 10.0 uM
[32] = target: Casein kinase I isoform alpha (Homo sapiens) (UniProt P48729); conditions: Compound concentration 1000.0 nM
[33] = target: Receptor-interacting serine/threonine-protein kinase 1 (Homo sapiens) (UniProt Q13546); conditions: Compound concentration 1000.0 nM
Sequence of Receptor-interacting serine/threonine-protein kinase 1 (Homo sapiens) (Q13546 whole entry): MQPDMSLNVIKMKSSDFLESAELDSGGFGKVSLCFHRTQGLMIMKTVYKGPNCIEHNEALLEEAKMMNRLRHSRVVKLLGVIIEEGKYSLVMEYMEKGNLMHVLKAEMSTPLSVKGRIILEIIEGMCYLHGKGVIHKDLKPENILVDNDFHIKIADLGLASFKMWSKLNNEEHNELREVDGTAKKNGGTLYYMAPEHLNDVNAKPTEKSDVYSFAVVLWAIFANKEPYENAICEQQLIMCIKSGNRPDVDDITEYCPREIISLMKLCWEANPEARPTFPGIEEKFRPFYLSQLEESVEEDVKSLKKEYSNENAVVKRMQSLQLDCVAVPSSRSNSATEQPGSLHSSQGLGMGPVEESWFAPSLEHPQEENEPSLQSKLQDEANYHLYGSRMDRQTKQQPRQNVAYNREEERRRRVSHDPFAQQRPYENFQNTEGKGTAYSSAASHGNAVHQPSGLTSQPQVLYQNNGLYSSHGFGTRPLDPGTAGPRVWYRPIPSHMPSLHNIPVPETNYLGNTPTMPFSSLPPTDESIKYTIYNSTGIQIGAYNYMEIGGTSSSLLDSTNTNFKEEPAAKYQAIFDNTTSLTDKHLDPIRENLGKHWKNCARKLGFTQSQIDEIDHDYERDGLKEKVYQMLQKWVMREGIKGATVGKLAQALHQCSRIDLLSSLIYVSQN

[34] = target: Rhodopsin kinase GRK7 (Homo sapiens) (UniProt Q8WTQ7); conditions: Compound concentration 1000.0 nM
Sequence of Rhodopsin kinase GRK7 (Homo sapiens) (Q8WTQ7 whole entry): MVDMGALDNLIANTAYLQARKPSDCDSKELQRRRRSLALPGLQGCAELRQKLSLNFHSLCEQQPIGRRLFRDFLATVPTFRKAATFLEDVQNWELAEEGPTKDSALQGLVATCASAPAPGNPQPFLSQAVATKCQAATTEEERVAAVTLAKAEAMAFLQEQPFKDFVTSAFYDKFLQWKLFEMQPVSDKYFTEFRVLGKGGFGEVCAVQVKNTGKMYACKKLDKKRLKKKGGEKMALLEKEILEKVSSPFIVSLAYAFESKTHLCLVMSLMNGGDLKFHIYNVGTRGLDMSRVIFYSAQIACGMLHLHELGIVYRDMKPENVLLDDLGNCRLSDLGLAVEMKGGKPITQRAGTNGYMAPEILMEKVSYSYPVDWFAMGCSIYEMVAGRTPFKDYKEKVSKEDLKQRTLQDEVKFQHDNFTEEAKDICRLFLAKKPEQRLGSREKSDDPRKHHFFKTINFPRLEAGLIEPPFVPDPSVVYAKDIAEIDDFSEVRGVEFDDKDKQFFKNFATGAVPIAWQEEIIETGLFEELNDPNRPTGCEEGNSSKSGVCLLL

[35] = system: Epidermal growth factor receptor (Homo sapiens), P00533 [UNDEFINED MUTATION]; conditions: Compound concentration 1000.0 nM; remark: listed apart in the source
[36] = target: Mitogen-activated protein kinase 10 (Homo sapiens) (UniProt P53779); conditions: Compound concentration 1000.0 nM
[37] = system: Receptor-type tyrosine-protein kinase FLT3 (Homo sapiens), P36888 [UNDEFINED MUTATION]; conditions: Compound concentration 1000.0 nM
[38] = target: Activin receptor type-1-like (Homo sapiens) (UniProt P37023); conditions: Compound concentration 1000.0 nM
[39] = target: Type-2 angiotensin II receptor (Homo sapiens) (UniProt P50052); experiment: AT2 (h) Eurofins-Cerep binding assay; conditions: filed as agonist, Compound concentration 10.0 uM
[40] = system: Epidermal growth factor receptor (Homo sapiens), P00533 [L858R]; conditions: Compound concentration 1000.0 nM
[41] = target: Serine/threonine-protein kinase ULK1 (Homo sapiens) (UniProt O75385); conditions: Compound concentration 1000.0 nM
Sequence of Serine/threonine-protein kinase ULK1 (Homo sapiens) (O75385 whole entry, the tested form may be a part): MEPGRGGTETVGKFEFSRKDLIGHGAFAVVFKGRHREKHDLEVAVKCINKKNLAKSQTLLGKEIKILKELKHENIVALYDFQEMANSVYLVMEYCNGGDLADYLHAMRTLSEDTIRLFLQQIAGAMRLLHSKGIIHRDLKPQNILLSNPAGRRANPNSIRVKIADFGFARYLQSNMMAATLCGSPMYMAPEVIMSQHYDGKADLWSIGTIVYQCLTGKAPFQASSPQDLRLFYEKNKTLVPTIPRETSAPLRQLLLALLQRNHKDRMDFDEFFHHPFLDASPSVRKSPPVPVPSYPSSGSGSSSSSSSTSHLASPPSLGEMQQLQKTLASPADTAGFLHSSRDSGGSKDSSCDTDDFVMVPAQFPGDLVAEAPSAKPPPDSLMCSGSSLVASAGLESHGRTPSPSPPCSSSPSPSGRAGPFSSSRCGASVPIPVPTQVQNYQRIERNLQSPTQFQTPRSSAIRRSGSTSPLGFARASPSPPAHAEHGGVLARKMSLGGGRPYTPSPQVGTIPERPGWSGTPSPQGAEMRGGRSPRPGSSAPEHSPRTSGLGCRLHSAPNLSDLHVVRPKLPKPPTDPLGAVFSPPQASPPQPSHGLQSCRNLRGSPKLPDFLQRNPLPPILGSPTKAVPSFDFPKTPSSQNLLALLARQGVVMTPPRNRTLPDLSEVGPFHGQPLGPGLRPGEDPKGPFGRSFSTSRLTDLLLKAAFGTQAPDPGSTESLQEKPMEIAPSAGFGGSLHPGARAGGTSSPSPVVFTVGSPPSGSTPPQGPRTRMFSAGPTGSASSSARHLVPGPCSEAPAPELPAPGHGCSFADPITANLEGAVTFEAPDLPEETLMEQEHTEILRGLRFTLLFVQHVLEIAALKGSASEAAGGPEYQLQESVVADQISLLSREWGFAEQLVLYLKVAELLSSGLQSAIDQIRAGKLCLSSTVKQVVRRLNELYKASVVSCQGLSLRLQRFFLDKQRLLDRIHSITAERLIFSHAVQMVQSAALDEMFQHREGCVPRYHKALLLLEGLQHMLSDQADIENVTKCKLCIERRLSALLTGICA

[42] = target: Epithelial discoidin domain-containing receptor 1 (Homo sapiens) (UniProt Q08345); conditions: Compound concentration 1000.0 nM
[43] = target: Phosphatidylinositol 4,5-bisphosphate 3-kinase catalytic subunit alpha isoform (Homo sapiens) (UniProt P42336); conditions: Compound concentration 1000.0 nM
[44] = target: Serine/threonine-protein kinase D1 (Homo sapiens) (UniProt Q15139); conditions: Compound concentration 1000.0 nM
[45] = target: Cyclin-dependent kinase 4 (Homo sapiens) (UniProt P11802); conditions: Compound concentration 1000.0 nM

CCCOc1ccc([C@H]2[C@H](C(=O)O)[C@@H](c3ccc4c(c3)OCO4)CN2CC(=O)Nc2c(CC)cccc2CC)cc1 [A-192621]
1.5%: % Inhibition of Control Specific Binding (Mean n=2) [2]
31.9%: % Inhibition of Control Specific Binding (Mean n=2) [31]
-11.2%: % Inhibition of Control Specific Binding (Mean n=2) [22]
active: residual activity [37] 13%
2.5%: % Inhibition of Control Specific Binding (Mean n=2) [39]
12.3%: % Inhibition of Control Specific Binding (Mean n=2) [16]
inactive: residual activity [1] 91% | residual activity [3] 85% | residual activity [4] 85% | residual activity [6] 89% | residual activity [7] 74% | residual activity [8] 74% | residual activity [9] 100% | residual activity [10] 82% | residual activity [11] 98% | residual activity [12] 58% | residual activity [13] 100% | residual activity [14] 67% | residual activity [15] 100% | residual activity [17] 86% | residual activity [18] 71% | residual activity [19] 81% | residual activity [20] 70% | residual activity [21] 91% | residual activity [23] 75% | residual activity [24] 98% | residual activity [25] 77% | residual activity [26] 73% | residual activity [27] 72% | residual activity [28] 98% | residual activity [29] 100% | residual activity [30] 97% | residual activity [32] 72% | residual activity [33] 88% | residual activity [34] 100% | residual activity [35] 100% | residual activity [36] 80% | residual activity [38] 99% | residual activity [40] 100% | residual activity [41] 68% | residual activity [42] 100% | residual activity [43] 80% | residual activity [44] 94% | residual activity [45] 100%
3.4%: % Inhibition of Control Specific Binding (Mean n=2) [5]

CCCOc1ccc([C@@H]2[C@@H](C(=O)O)[C@H](c3ccc4c(c3)OCO4)CN2CC(=O)Nc2c(CC)cccc2CC)cc1 [A-1806262]
20.8%: % Inhibition of Control Specific Binding (Mean n=2) [39]
13.4%: % Inhibition of Control Specific Binding (Mean n=2) [16]
inactive: residual activity [1] 100% | residual activity [3] 100% | residual activity [4] 100% | residual activity [6] 96% | residual activity [7] 77% | residual activity [8] 92% | residual activity [9] 100% | residual activity [10] 100% | residual activity [11] 99% | residual activity [12] 81% | residual activity [13] 100% | residual activity [14] 96% | residual activity [15] 100% | residual activity [17] 100% | residual activity [18] 80% | residual activity [19] 86% | residual activity [20] 88% | residual activity [21] 100% | residual activity [23] 97% | residual activity [24] 90% | residual activity [25] 89% | residual activity [26] 76% | residual activity [27] 87% | residual activity [28] 97% | residual activity [29] 90% | residual activity [30] 80% | residual activity [32] 73% | residual activity [33] 55% | residual activity [34] 99% | residual activity [35] 100% | residual activity [36] 95% | residual activity [37] 63% | residual activity [38] 100% | residual activity [40] 87% | residual activity [41] 77% | residual activity [42] 89% | residual activity [43] 84% | residual activity [44] 96% | residual activity [45] 84%
-3.8%: % Inhibition of Control Specific Binding (Mean n=2) [2]
54.1%: % Inhibition of Control Specific Binding (Mean n=2) [31]
3.7%: % Inhibition of Control Specific Binding (Mean n=2) [22]
1.2%: % Inhibition of Control Specific Binding (Mean n=2) [5]
